One test has as its target T1, human TGR5 (Homo sapiens, UniProt Q8TDU6).
T1 construct: expressed in transfected cells
T1 sequence (Q8TDU6 1-330): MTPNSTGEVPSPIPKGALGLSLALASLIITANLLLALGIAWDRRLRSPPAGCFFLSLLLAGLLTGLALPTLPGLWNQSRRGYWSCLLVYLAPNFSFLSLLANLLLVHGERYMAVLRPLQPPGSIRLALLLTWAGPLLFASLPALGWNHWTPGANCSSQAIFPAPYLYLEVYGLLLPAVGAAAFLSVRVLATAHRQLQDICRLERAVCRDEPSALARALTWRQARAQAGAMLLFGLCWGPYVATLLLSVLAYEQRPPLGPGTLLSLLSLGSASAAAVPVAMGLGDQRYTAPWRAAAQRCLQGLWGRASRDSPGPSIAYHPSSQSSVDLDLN
The test can be described thus: Cell-based TGR5 assay, HEK293 cells stably expressing human TGR5, cAMP by HTRF. To be noted: HEK293 cells stably expressing human TGR5, 30 min at 37 C, 0.05 nM to 10 μM; for EC50: read-out: pEC50 Human TGR5 (converted). In short, it runs like this: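 cAMP HTRF read-out, converted to concentration via standard curve, after a 30 min, 37 °C compound exposure in HBSS with 10 mM HEPES pH 7.4 and 0.5 mM IBMX, compounds serially diluted 3-fold from 10 mM DMSO stock then 100-fold. Cells: stable human TGR5 HEK293, or NCI-H716 expressing TGR5 endogenously.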
In general terms: In TR-FRET formats the signal depends on donor and acceptor labels being close together.

Test [1] addresses T2, endogenously expressed TGR5 in NCI H716 (Homo sapiens, UniProt Q8TDU6).
T2 construct: human caecum carcinoma cell line NCI-H716 which endogenously expresses human TGR5; endogenous in cells; host or cells: NCI-H716
T2 sequence (Q8TDU6 1-330): T1 sequence (Q8TDU6 1-330)
The experiment in a line: Cell-based TGR5 assay, NCI-H716 cells endogenously expressing human TGR5, cAMP by HTRF. To be noted: 30 min at 37 C, 22 nM to 50 μM, read-out: pEC50 endogenously expressed TGR5 in NCI H716 (converted). As for the experimental part:
Two primary cell based screens were performed. The first utilized HEK293 cells stably transfected to heterologously express human TGR5. The second screen used the human caecum carcinoma cell line NCI-H716 which endogenously expresses human TGR5. In both assays, cells are treated with candidate TGR5 activators and assessed for the increased intercellular levels of cAMP. […]
TGR5-mediated cAMP generation was measured using a homogeneous time resolved fluorescence (HTRF) detection method (Cisbio). Test compounds were dissolved in DMSO to a final concentration of 10 mM. Serial 3-fold dilutions of the stock solution were made in DMSO, and these solutions were diluted 100-fold into Hanks Balanced Salt Solution supplemented with 10 mM HEPES pH 7.4 and 0.5 mM isobutyl methylxanthine (IBMX). Prior to assay, culture medium was replaced with fresh medium, and test compounds diluted in HBSS/HEPES/IBMX were added to the cells and incubated at 37° C. for 30 minutes.
Following incubation with test compounds, cAMP was detected through the successive addition of cAMP labeled with the modified allophyocyanin dye d2 (cAMP-d2) and cryptate-labeled anti-cAMP in lysis buffer, and reading HTRF per the manufacturer's instructions. A standard curve was used to convert the raw HTRF data into [cAMP].

As to `CN(C[C@H](O)[C@@H](O)[C@H](O)[C@H](O)CO)C(=O)CCCOc1cc(Cl)c(CN2CSC[C@H]2C(=O)N2CCN(C3CC3)c3ccccc32)cc1Cl` [Example 189], the EC50 at human TGR5 was below 100 nM; in test [1], 126 to 1000 nM.
As for `O=C(N1CCN(C2CC2)c2ccccc21)C1(OCc2cc(C(F)(F)F)ccc2Cl)CC1` [Example 43, 1-[(1-[[2-chloro-5-(trifluoromethyl)phenyl]methoxy]cyclopropyl)carbonyl]-4-cyclopropyl-1,2,3,4-tetrahydroquinoxaline], the EC50 (at human TGR5; in test [1]) was below 100 nM throughout.
On to `O=C([C@@H]1CCCN1Cc1cc(Cl)cc(OC(F)(F)F)c1)N1CCN(C2CC2)c2ccccc21` [Example 74, 1-[[(2S)-1-[[3-chloro-5-(trifluoromethoxy)phenyl]methyl]-pyrrolidin-2-yl]carbonyl]-4-cyclopropyl-1,2,3,4-tetrahydroquinoxaline], for which the EC50 was 126 to 1000 nM at human TGR5 and above 50100 nM in test [1].
For `O=C(N1CCN(C2CC2)c2ccccc21)C1(NCc2cc(Cl)ccc2Cl)COC1` [Example 90, (4-cyclopropyl-3,4-dihydroquinoxalin-1(2H)-yl)(3-(2,5-dichlorobenzylamino)oxetan-3-yl)methanone], the EC50 at human TGR5 was below 100 nM; in test [1], 126 to 1000 nM.
With `CC(=O)N1CC(OCc2cc(Cl)ccc2Cl)(C(=O)N2CCN(C3CC3)c3ccccc32)C1` [Example 54, 1-(3-(4-cyclopropyl-1,2,3,4-tetrahydroquinoxaline-1-carbonyl)-3-(2,5-dichlorobenzyloxyl)azetidin-1-yl)ethanone], the EC50 at human TGR5 is 126 to 1000 nM; in test [1] it was 1260 to 50100 nM.
On to `O=C(N1CCN(C2CC2)c2ccccc21)C1(CSc2cc(Cl)ccc2Cl)CC1` [Example 180, (4-cyclopropyl-3,4-dihydroquinoxalin-1(2H)-yl)(1-((2,5-dichlorophenylthio)methyl)cyclopropyl)methanone], for which the figures for the EC50 (on human TGR5; in test [1]) were below 100 nM and 126 to 1000 nM, respectively.
Turning to `O=C(O)CCCOc1cc(Cl)c(CNC2(C(=O)N3CCN(C4CC4)c4ccccc43)CC2)cc1Cl` [Example 187], the EC50 was 126 to 1000 nM on human TGR5 and 1260 to 50100 nM in test [1].
Take `CN(C[C@H](O)[C@@H](O)[C@H](O)[C@H](O)CO)C(=O)NCCOc1cc(Cl)c(CNC2(C(=O)N3CCN(C4CC4)c4ccccc43)CC2)cc1Cl` [Example 185]: the values for the EC50 (on human TGR5; in test [1]) were 126 to 1000 nM and 1260 to 50100 nM, respectively.
For the compound `CN(C[C@H](O)[C@@H](O)[C@H](O)[C@H](O)CO)C(=O)CCc1cc(Cl)c(CN2CCC[C@H]2C(=O)N2CCN(C3CC3)c3ccccc32)cc1Cl` [Example 48, 3-(2,5-dichloro-4-(((S)-2-(4-cyclopropyl-1,2,3,4-tetrahydroquinoxaline-1carbonyl)pyrrolidin-1-yl)methyl)phenyl)-N-methyl-N-((2S,3R,4R,5R)-2,3,4,5,6-pentahydroxyhexyl)propanamide], the EC50 was 126 to 1000 nM on human TGR5 and 1260 to 50100 nM in test [1].
Take `CN(C[C@H](O)[C@@H](O)[C@@H](O)[C@H](O)CO)C(=O)NCCCc1cc(Cl)c(CNC2(C(=O)N3CCN(C4CC4)c4ccccc43)CC2)cc1Cl` [Example 214]: the EC50 (at human TGR5; in test [1]) was 126 to 1000 nM throughout.
`O=C(CCc1ccc(Cl)c(CNC2(C(=O)N3CCN(C4CC4)c4ccccc43)CC2)c1)NC[C@H](O)[C@@H](O)[C@H](O)[C@H](O)CO` [Example 70, 3-(4-chloro-3-(((1-(4-cyclopropyl-1,2,3,4-tetrahydroquinoxaline-1-carbonyl)cyclopropyl)amino)methyl)phenyl)-N-((2S,3R,4R,5R)-2,3,4,5,6-pentahydroxyhexyl)propanamide]: the EC50 (at human TGR5; in test [1]) was 1260 to 50100 nM throughout.
As to `O=C(N1CCN(C2CC2)c2ccccc21)C1(OCc2cc(Cl)ccc2Cl)CNC1` [Example 50, (4-cyclopropyl-3,4-dihydroquinoxalin-1(2H)-yl)(3-(2,5-dichlorobenzyloxyl)azetidin-3-yl)methanone], the EC50 is 126 to 1000 nM at human TGR5 and 1260 to 50100 nM in test [1].
For `COc1ccccc1N(C)C(=O)C1(NCc2cc(Cl)ccc2Cl)CC1` [Example 38, 1-(2,5-dichlorobenzylamino)-N-(2-methoxyphenyl)-N-methylcyclopropanecarboxamide], the EC50 (at human TGR5; in test [1]) was below 100 nM throughout.
Consider `CCN1CC(OCc2cc(Cl)ccc2Cl)(C(=O)N2CCN(C3CC3)c3ccccc32)C1` [Example 52, (4-cyclopropyl-3,4-dihydroquinoxalin-1(2H)-yl)(3-(2,5-dichlorobenzyloxy)-1-ethylazetidin-3-yl)methanone], for which the EC50 on human TGR5 is 126 to 1000 nM; in test [1], 1260 to 50100 nM.
For `O=C(N1CCN(C2CC2)c2ccccc21)C1(OCc2c(Cl)cccc2Cl)CC1` [Example 247], the EC50 (at human TGR5; in test [1]) was 1260 to 50100 nM in each case.
`CN(C(=O)C1(OCc2cc(Cl)c(CCCCNC(=O)NC[C@H](O)[C@@H](O)[C@H](O)[C@H](O)CO)cc2Cl)CC1)c1ccccc1OC1CC1` [Example 257]: the EC50 was below 100 nM at human TGR5 and 126 to 1000 nM in test [1].
Consider `COc1cc(Cl)c(CN2CCC[C@H]2C(=O)N2CCN(C3CC3)c3ccccc32)cc1Cl` [Example 89, (S)-(4-cyclopropyl-3,4-dihydroquinoxalin-1(2H)-yl)(1-(2,5-dichloro-4-methoxybenzyl)pyrrolidin-2-yl)methanone], for which the EC50 at human TGR5 is 126 to 1000 nM; in test [1] it was 1260 to 50100 nM.
Regarding `CC(C(=O)N1CCN(C2CC2)c2ccccc21)N(C)Cc1cc(Cl)ccc1Cl` (stereo not shown) [Example 243], the EC50 on human TGR5 is 126 to 1000 nM; in test [1], 1260 to 50100 nM.
`O=C(N1CCCc2ncccc21)C1(OCc2cc(Cl)ccc2Cl)CC1` [Example 86, 1-([1-[(2,5-dichlorophenyl)methoxy]cyclopropyl]carbonyl)-1,2,3,4-tetrahydro-1,5-naphthyridine]: the EC50 on human TGR5 is above 10000 nM; in test [1], above 50100 nM.
For the compound `O=C(N1CCN(C2CC2)c2ccccc21)C1(OCc2cc(Cl)ccc2C(F)(F)F)CC1` [Example 42, (1-(5-chloro-2-(trifluoromethyl)benzyloxy)cyclopropyl)(4-cyclopropyl-3,4-dihydroquinoxalin-1(2H)-yl)methanone], the EC50 (on human TGR5; in test [1]) was 126 to 1000 nM throughout.
With `CN(C[C@H](O)[C@@H](O)[C@H](O)[C@H](O)CO)C(=O)NCCOc1cc(Cl)c(CNC2(C(=O)N3CCN(C4CC4)c4ccccc43)CC2)cc1Cl` [Example 188], the “pEC50 Human TGR5” value at human TGR5 was “B (B is a pEC50 of 6-6.9)”. Moreover, the EC50 in test [1] is 126 to 1000 nM.
Take `Cc1ccc(Cl)c(COC2(C(=O)N3CCN(C4CC4)c4ccccc43)CC2)c1F` [Example 249]: the EC50 (at human TGR5; in test [1]) was 1260 to 50100 nM each time.
Take `CN(C[C@H](O)[C@@H](O)[C@H](O)[C@H](O)CO)C(=O)NCCOc1cc(Cl)c(CN2CSC[C@H]2C(=O)N2CCN(C3CC3)c3ccccc32)cc1Cl` [Example 184]: the EC50 (at human TGR5; in test [1]) was 126 to 1000 nM throughout.
Turning to `CN(C(=O)C1(OCc2cc(Cl)ccc2Cl)CC1)c1ccccc1OC1CCC1` [Example 72, N-(2-cyclobutoxyphenyl)-1-(2,5-dichlorobenzyloxy)-N-methylcyclopropanecarboxamide], the EC50 (on human TGR5; in test [1]) was below 100 nM in each case.
In the case of `CN(C[C@H](O)[C@@H](O)[C@H](O)[C@H](O)CO)C(=O)NCCCCc1ccc(Cl)c(CNC2(C(=O)N3CCN(C4CC4)c4ccccc43)CC2)c1` [Example 213], the EC50 at human TGR5 was 126 to 1000 nM; in test [1], 1260 to 50100 nM.
As to `CC(c1cc(Cl)ccc1Cl)N1CCC[C@H]1C(=O)N1CCN(C2CC2)c2ccccc21` (single isomer, unassigned) [Example 67], the EC50 (at human TGR5; in test [1]) was 1260 to 50100 nM each time.
As to `Cc1ccc(Cl)c(CN2CCC[C@H]2C(=O)N2CCN(C3CC3)c3ccccc32)c1F` [Example 245], the EC50 (on human TGR5; in test [1]) was 1260 to 50100 nM each time.
Turning to `Cc1cccc(CC2CCCN2C(=O)N2CCN(C3CC3)c3ccccc32)c1` (stereo not shown) [Example 58], the EC50 (on human TGR5; in test [1]) was 1260 to 50100 nM each time.
Take `O=C(N1CCN(C2CC2)c2ccccc21)C1(OCc2cc(Cl)cc(OC(F)(F)F)c2)CC1` [Example 248]: the EC50 (at human TGR5; in test [1]) was 1260 to 50100 nM throughout.

(Values after patent US20150148311A1, “NON-SYSTEMIC TGR5 AGONISTS” (Ardelyx, Inc., priority 2011, published 2015).)
